# Measured values reported in the OPERA property sets (Mansouri et al. 2018).
# Conditions: not given
Structure (SMILES),boiling point,melting point,ready biodegradability,log10 Henry constant (atm·m³/mol),log10 Koa,log10 Koc (L/kg),log10 vapour pressure (mmHg),log10 biodegradation half-life (days),logP
C=C[Si](C)(C)OCC,99 °C,,,,,,,,
CCOC(=O)C(=O)Nc1ccccc1,280 °C,65.5 °C,,,,,,,
FC(F)(F)c1ccc(Cl)nc1,153 °C,33 °C,,,,,,,
CC[C@@H]1C(=O)OC[C@@H]1Cc1cncn1C,,34 °C,,,,,,,
O=C(CCCN1CCC(O)(c2ccc(Cl)cc2)CC1)c1ccc(F)cc1,,152 °C,,,,,,,
S=C(SN1CCOCC1)N1CCOCC1,,139 °C,,,,,,,
CC(C)CCCC(=O)O,216 °C,,,,,,,,
ClC1=C(Cl)C2(Cl)C3C4C=CC(C4)C3C1(Cl)C2(Cl)Cl (centres undefined),,,not readily biodegradable,,,,,,
C[C@H](O)[C@H](O)[C@@H](O)[C@@H](O)C=O,,135 °C,,,,,,,
FC(F)(F)C(F)(F)C(F)(F)C(F)(F)C(F)(F)I,94.4 °C,-50 °C,,,,,,,
CC(Cl)(Cl)Cl,74 °C,-30.4 °C,not readily biodegradable,-1.76,2.7,1.95,2.09,,
CC(C)CC(=O)c1ccccc1,236 °C,,,,,,,,
CC(O)COC(C)C (centres undefined),138 °C,,,,,,,,
CC(C)CO,,,readily biodegradable,-5.01,3.93,,1.02,,
O=C1NN(c2ccccc2)C(=O)C1c1ccccc1 (centres undefined),,234 °C,,,,,,,
CC(C)C(C)c1ccccc1 (centres undefined),187 °C,,,,,,,,
Cc1cc(Cl)cc2c1C(=O)/C(=C1/Sc3cc(Cl)cc(C)c3C1=O)S2,,,,,,,-13.5,,
Nc1cccc(Cl)c1,230 °C,-10.4 °C,not readily biodegradable,-6,,,-1.18,,
CC(C)CCC[C@H](C)O,174 °C,-105 °C,,,,,,,
C[C@H](N)Cc1ccccc1,203 °C,,,,,,,,
COC(=O)c1cc(Oc2ccc(C(F)(F)F)cc2Cl)ccc1[N+](=O)[O-],,,,,,,-7.12,,
CCN(CC)C(=S)[S-].[Na+],,98 °C,,,,,,,
OCCOCCOCCOCCO,328 °C,,,,,,-4.33,,
Oc1ccc2ccccc2c1/N=N/c1ccccc1,,134 °C,,,,3.58,,,
CCCCCCC(C)OC(=O)COc1nc(F)c(Cl)c(N)c1Cl (centres undefined),,59 °C,,,,,-8,,
CC(C)=CC(=O)O,197 °C,69.5 °C,,,,,,,
C[C@H](O)CC[C@H](C)O,218 °C,43 °C,,,,,,,

Structure (SMILES),boiling point,melting point,ready biodegradability,log10 Henry constant (atm·m³/mol),log10 Koa,log10 Koc (L/kg),log10 vapour pressure (mmHg),log10 biodegradation half-life (days),logP
O=C(O)COc1ccc(C(=O)c2cccs2)c(Cl)c1Cl,,149 °C,,,,,,,
CCc1cccc2c3c([nH]c12)C(CC)(CC(=O)O)OCC3 (centres undefined),,146 °C,,,,,,,
O=C(O)CNCP(=O)(O)O,,190 °C,,,,3.32,,,
CCCCCCCCCCCCCCCCOP(=O)(O)OCCCCCCCCCCCCCCCC,,74.5 °C,,,,,,,
C1=C\CC/C=C\CC/1,,,not readily biodegradable,,,,,,
O=C(O)c1ccc(NS(=O)(=O)Cc2ccccc2)cc1,,230 °C,,,,,,,
CCCCCC=O,131 °C,-56 °C,readily biodegradable,-3.67,4.41,,1.05,,
BrCC(Br)CBr,222 °C,16.9 °C,,,,,,,
NCC1CCNCC1,200 °C,25 °C,,,,,,,
Cc1cc(O)c2c(c1)C(=O)c1cc(O)cc(O)c1C2=O,,257 °C,,,,,,,
Cc1ccc(C(C)C)c(O)c1,232 °C,51.5 °C,not readily biodegradable,,,,-2.66,,
CCCCCCCCCCCCCCCCCCCl,348 °C,28.6 °C,,,,,-4.77,,
COCC(C)O (centres undefined),119 °C,-95 °C,readily biodegradable,-6.04,,,1.1,,
N#CCCC[Si](Cl)(Cl)Cl,238 °C,,,,,,,,
O=C1CCSc2ccccc21,,29 °C,,,,,,,
Brc1ccccc1Br,225 °C,7.1 °C,,,,,,,
O=c1c(-c2ccccc2)c1-c1ccccc1,,119 °C,,,,,,,
C#Cc1ccc(C)cc1,169 °C,,,,,,,,
O=C(CO)[C@@H](O)[C@@H](O)[C@H](O)[C@H](O)CO,,151 °C,,,,,,,
O=C(O)CCC(=O)Nc1ccccc1,,148 °C,,,,,,,
COc1ccc(N=Nc2ccccc2)cc1,340 °C,56 °C,,,,,,,
C=C(C)C(C)Cl (centres undefined),94 °C,,,,,,,,
C=CCNC(N)=S,,78 °C,,,,,,,
N#Cc1ccccc1CCl,252 °C,61 °C,,,,,,,
Clc1cccc(Oc2ccccc2)c1,,,,,,,-2.42,,
OB(c1ccccc1)c1ccccc1,,57.5 °C,,,,,,,
Cc1cccc2ccc(Cl)nc12,287 °C,61 °C,,,,,,,

Structure (SMILES),boiling point,melting point,ready biodegradability,log10 Henry constant (atm·m³/mol),log10 Koa,log10 Koc (L/kg),log10 vapour pressure (mmHg),log10 biodegradation half-life (days),logP
CC(C)CCC(C)C,109 °C,-91 °C,,,,,1.48,1.4,
ClC1=C(Cl)C2(Cl)[C@@H]3C[C@@H](Cl)[C@@H](Cl)[C@@H]3C1(Cl)C2(Cl)Cl (mixture of isomers),,,,,8.89,,,,
CCC(Br)C(=O)Cl (centres undefined),151 °C,,,,,,,,
C=C1C=CC(C(C)C)CC1 (centres undefined),172 °C,,,,,,0.2,,
CN(C)CCCN(CCCN(C)C)CCCN(C)C,,,not readily biodegradable,,,,,,
CC(=O)OC1CC(C)OC(C)O1 (centres undefined),,,readily biodegradable,,,,,,
CCC1(c2ccccc2)C(=O)N(COC)C(=O)N(COC)C1=O,,117 °C,,,,,,,
O=C(Cc1ccccc1)OC(=O)Cc1ccccc1,,73.3 °C,,,,,,,
CCC(C)C(C)C(C)CC (centres undefined),162 °C,,,,,,,,
CC1(C)CNC(=NN=C(/C=C/c2ccc(C(F)(F)F)cc2)/C=C/c2ccc(C(F)(F)F)cc2)NC1,,188 °C,,,,5.86,-7.69,,
CC(=O)OCOc1ccccc1C(N)=O,,92.5 °C,,,,,,,
COP(=S)(OC)SCN1C(=O)c2ccccc2C1=O,,72 °C,,,,2.91,-6.31,,
CCC1CCC(C)C1 (centres undefined),,,,,,,0.799,,
COc1ccc(CC#N)cc1OC,,62.8 °C,,,,,,,
CC(C)COc1ccccc1,198 °C,,,,,,,,
CCP(CC)CC,129 °C,-88 °C,,,,,,,
C=C[C@H](C)O,96.5 °C,,,,,,,,
c1ccc2c(c1)ccc1c3ccccc3ccc21,448 °C,258 °C,,-5.28,,,-8.21,2.58,
CCOC(=O)N(C)N=O,,,,,,,0.0719,,
OCc1cccc(F)c1,201 °C,,,,,,,,
Cc1cc(C)c(C)cn1,188 °C,,,,,,,,
CCc1nc(CC)nc(NS(=O)(=O)c2ccc(N)cc2)n1,,187 °C,not readily biodegradable,,,,,,
COC(=O)c1ccccc1OC,246 °C,,,,,,,,
Cc1ccc(/N=N/c2c(O)ccc3ccccc23)c(C)c1,,166 °C,,,,,,,
CC/C(=C\c1ccccc1)[N+](=O)[O-],308 °C,90.5 °C,,,,,,,
O=C1c2ccccc2C(=O)C1c1ccc(Br)cc1,,138 °C,,,,,,,
Cc1cccc(C)c1N(Cn1cccn1)C(=O)CCl,,85 °C,,-9.25,,,,,

Structure (SMILES),boiling point,melting point,ready biodegradability,log10 Henry constant (atm·m³/mol),log10 Koa,log10 Koc (L/kg),log10 vapour pressure (mmHg),log10 biodegradation half-life (days),logP
CCCCNCC(=O)Nc1c(C)cccc1Cl,,45.5 °C,,,,,,,
O=C(O)CN(CCO)CC(=O)O,,178 °C,,,,,,,
Cc1ccc2nc(C)cc(C)c2c1,280 °C,68 °C,,,,,,,
Brc1ccc2oc3ccccc3c2c1,,110 °C,,,,,,,
CC(C)(Oc1ccc(C2CC2(Cl)Cl)cc1)C(=O)O (centres undefined),,115 °C,,,,,,,
Brc1ccc(Oc2ccc(Br)cc2Br)cc1,,,,,9.5,,-6.17,,5.94
O=C(O)/C=C(/Br)C(=O)O,,163 °C,,,,,,,
CCCNC(=O)COC(=O)c1ccccc1,,89.5 °C,,,,,,,
COc1ccc2c(c1)[nH]c1c(C)nccc12,,273 °C,,,,,,,
O=C(O)CCc1ccccc1,280 °C,107 °C,,,,,-2.57,,
C[Si]1(c2ccccc2)O[Si](C)(c2ccccc2)O[Si](C)(c2ccccc2)O[Si](C)(c2ccccc2)O1 (centres undefined),,99 °C,,,,,,,
O=C(O)c1ccccc1C(=O)Nc1ccc(S(=O)(=O)Nc2nccs2)cc1,,273 °C,,,,,,,
C[C@]12CCC(=O)C=C1CC[C@@H]1[C@@H]2[C@@H](O)C[C@@]2(C)[C@H]1CC[C@]2(O)C(=O)CO,,218 °C,,,,,,,
CC(=O)CCc1ccccc1,234 °C,-13 °C,not readily biodegradable,,,,,,
CN(C)c1ccc(N=O)cc1,,92.5 °C,,,,,,,
O=[N+]([O-])c1ccc(O)c2ncccc12,,180 °C,,,,,,,
CCOCCOC(C)=O,156 °C,-61.7 °C,readily biodegradable,-5.49,,,0.369,,
Clc1cc2oc3c(Cl)c(Cl)c(Cl)c(Cl)c3c2c(Cl)c1Cl,,,,,11.4,,,,
CCC(C)(C)CC(C)C,131 °C,-113 °C,,,,,1.13,,
CC(=O)C(c1ccccc1)c1ccccc1,307 °C,46 °C,,,,,,,
CCCCCCCCCCCCCCCCCCNC,,44 °C,,,,,,,
CCCC(=O)Oc1ccccc1,225 °C,,,,,,,,
Fc1cc2c(cc1F)Oc1cc(Br)c(Br)cc1O2,,210 °C,,,,,-7.74,,
C=CCC1CCCC1,125 °C,-111 °C,,,,,,,

# Same assay, conditions: fish
Structure (SMILES),log10 BCF,log10 biotransformation half-life (days)
CC(Cl)(Cl)Cl,0.7,-1.39
Nc1cccc(Cl)c1,0.35,-0.71
CCCCCCC(C)OC(=O)COc1nc(F)c(Cl)c(N)c1Cl (centres undefined),,-0.61
COP(=S)(OC)SCN1C(=O)c2ccccc2C1=O,0.26,
c1ccc2c(c1)ccc1c3ccccc3ccc21,,0.59
Brc1ccc(Oc2ccc(Br)cc2Br)cc1,5.83,1.25
